In patent EP1832576A1, “4-Biarylyl-1-phenolyzetidin-2-ones” (Microbia Inc., priority 2003, dated 2005) one finds inhibition data, which are given here for 25 molecules.

The experiment deals with cholesterol absorption from the intestine. Put plainly: In Vivo Assay of Hypolipidemic Agents using the Rat Cholesterol Absorption Model. As to conditions: po, Table 1, perorally, 1 mg/kg, 3H levels in serum three hours after 3H-cholesterol, versus vehicle only control. Set-up: species or system Female Sprague-Dawley rats. How it is done:
In Vivo Assay of Hypolipidemic Agents using the Rat Cholesterol Absorption Model. This model is based on models described by Burnett et al (2002), Bioorg. Med. Chem. Lett. 2002 Feb 11;12(3):315-8 and J. Lipid Res. 1999 Oct;40(10):1747-57. Female Sprague-Dawley rats weighing 150-250g are separated into […] and fasted overnight. The animals (4-6/group) are dosed perorally with 300µL test compounds in olive oil or suitable vehicle. Thirty minutes later, 3-5 microCuries ^3H-cholesterol per rat are delivered perorally in 300 µL olive oil. After three hours, 200 µL serum is collected, vortexed with scintillation fluid, and measured for radioactivity in a scintillation counter. Percent inhibition is defined as 100*(1-Ctest/Cctrl), where Ctest and Cctrl refer to ^3H levels in serum for the test compound and for the vehicle only control, respectively. Percent inhibition values are reported for a fixed dose. The ED50 is the dose at which the half-maximal effect on serum ^3H levels is observed for a given test compound.
Representative compounds of the invention were tested in the Rat Cholesterol Absorption model above.
What is called inhibition is the share of the control response that was lost under treatment. On to `COc1ccc(C=O)c(-c2ccc([C@@H]3[C@@H](CC[C@H](O)c4ccc(F)cc4)C(=O)N3c3ccc(F)cc3)cc2)c1` [Example 85, 4'-{(2S,3R)-1-(4-fluorophenyl)-3-[(3S)-3-(4-fluorophenyl)-3-hydroxypropyl]-4-oxoazetidin-2-yl}-5-methoxybiphenyl-2-carbaldehyde], for which the inhibition at 1 mg/kg is 15%.

`Nc1cccc(-c2ccc([C@@H]3[C@@H](CC[C@H](O)c4ccc(F)cc4)C(=O)N3c3ccc(F)cc3)cc2)c1` [Example 86, (3R,4S)-4-(3'-aminabiphenyl-4-yl)-1-(4-fluorophenyl)-3-[(3S)-3-(4-fluorophenyl)-3-hydroxypropyl]azetidin-2-one]: at 1 mg/kg the inhibition was 35%.

As for `O=C1[C@H](CC[C@H](O)c2ccc(F)cc2)[C@@H](c2ccc(-c3ccc4c(c3)OCCO4)cc2)N1c1ccc(F)cc1` [Example 87, (3R,4S)-4-[4-(2,3-dihydro-1,4-benzodioxin-6-yl)phenyl]-1-(4-fluorophenyl)-3-[(3S)-3-(4-fluorophenyl)-3-hydroxypropyl]azetidin-2-one], the inhibition at 1 mg/kg was 59%.

In the case of `O=C(O)Cc1ccc(-c2ccc([C@@H]3[C@@H](CC[C@H](O)c4ccc(F)cc4)C(=O)N3c3ccc(F)cc3)cc2)cc1` [Example 88, (4'-{(2S,3R)-1-(4-fluorophenyl)-3-[(3S)-3-(4-fluorophenyl)-3-hydroxypropyl]-4-oxoazetidin-2-yl}biphenyl-4-yl)acetic acid], testing at 1 mg/kg gave an inhibition of 30%.

Consider `COC(=O)c1ccc(-c2ccc([C@@H]3[C@@H](CC[C@H](O)c4ccc(F)cc4)C(=O)N3c3ccc(F)cc3)cc2)cc1` [Example 89, methyl 4'-{(2S,3R)-1-(4-fluorophenyl)-3-[(3S)-3-(4-fluorophenyl)-3-hydroxypropyl]-4-oxoazetidin-2-yl} biphenyl-4-carboxylate], for which testing at 1 mg/kg gave an inhibition of 45%.

As to `Cc1cc(C)cc(-c2ccc([C@@H]3[C@@H](CC[C@H](O)c4ccc(F)cc4)C(=O)N3c3ccc(F)cc3)cc2)c1` [Example 90, (3R,4S)-4-(3',5'-dimethylbiphenyl-4-yl)-1-(4-fluorophenyl)-3-[(3S)-3-(4-fluorophenyl)-3-hydroxypropyl]azetidin-2-one], the inhibition at 1 mg/kg was determined as 27%.

In the case of `O=C1[C@H](CC[C@H](O)c2ccc(F)cc2)[C@@H](c2ccc(-c3ccc4ccccc4c3)cc2)N1c1ccc(F)cc1` [Example 91, (3R,4S)-1-(4-fluorophenyl)-3-[(3S)-3-(4-fluorophenyl)-3-hydroxypropyl]-4-[4-(2-naphthyl)phenyl]azetidin-2-one], 1 mg/kg produced 56% inhibition.

In turn, `O=C1[C@H](CC[C@H](O)c2ccc(F)cc2)[C@@H](c2ccc(-c3cccc(C(F)(F)F)c3)cc2)N1c1ccc(F)cc1` [Example 92, (3R,4S)-1-(4-fluorophenyl)-3-[(3S)-3-(4-fluorophenyl)-3-hydroxypropyl]-4-[3'-(trifluoromethyl)biphenyl-4-yl]azetidin-2-one] came in with an inhibition at 1 mg/kg of 17%.

In turn, `Cc1cccc(-c2ccc([C@@H]3[C@@H](CC[C@H](O)c4ccc(F)cc4)C(=O)N3c3ccc(F)cc3)cc2)c1` [Example 93, (3R,4S)-1-(4-fluorophenyl)-3-[(3S)-3-(4-fluorophenyl)-3-hydroxypropyl]-4-(3'-methylbiphenyl-4-yl)azetidin-2-one] gave an inhibition at 1 mg/kg of 28%.

Molecule `Cc1cc(-c2ccc([C@@H]3[C@@H](CC[C@H](O)c4ccc(F)cc4)C(=O)N3c3ccc(F)cc3)cc2)ccc1F` [Example 94, (3R,4S)-4-(4'-fluoro-3'-methylbiphenyl-4-yl)-1-(4-fluorophenyl)-3-[(3S)-3-(4-fluorophenyl)-3-hydroxypropyl]azetidin-2-one] yielded an inhibition at 1 mg/kg of 30%.

The molecule `O=C1[C@H](CC[C@H](O)c2ccc(F)cc2)[C@@H](c2ccc(-c3cccc(O[C@H]4O[C@@H](CO)[C@H](O)[C@@H](O)[C@@H]4O)c3)cc2)N1c1ccc(F)cc1` [Example 95, 4'-{(2S,3R)-1-(4-fluorophenyl)-3-[(3S)-3-(4-fluorophenyl)-3-hydroxypropyl]-4-oxoazetidin-2-yl}biphenyl-3-yl β-L-glucopyranoside] came in with an inhibition at 1 mg/kg of 57%.

Turning to `COc1ccc(-c2ccc([C@@H]3[C@@H](CC[C@H](O)c4ccc(F)cc4)C(=O)N3c3ccc(F)cc3)cc2)c(OC)c1OC` [Example 96, (3R,4S)-1-(4-fluorophenyl)-3-[(3S)-3-(4-fluorophenyl)-3-hydroxypropyl]-4-(2',3',4'-trimethoxybiphenyl-4-yl)azetidin-2-one], the inhibition at 1 mg/kg was found to be 69%.

With `COc1ccc(-c2ccc([C@@H]3[C@@H](CC[C@H](O)c4ccc(F)cc4)C(=O)N3c3ccc(F)cc3)cc2)c(OC)c1` [Example 97, (3R,4S)-4-(2',4'-dimethoxybiphenyl-4-yl)-1-(4-fluorophenyl)-3-[(3S)-3-(4-fluorophenyl)-3-hydroxypropyl]azetidin-2-one], the inhibition at 1 mg/kg is 40%.

In turn, `Cc1ccccc1-c1ccc([C@@H]2[C@@H](CC[C@H](O)c3ccc(F)cc3)C(=O)N2c2ccc(F)cc2)cc1` [Example 98, (3R,4S)-1-(4-fluorophenyl)-3-[(3S)-3-(4-fluorophenyl).3-hydroxypropyl]-4-(2'-methylbiphenyl-4-yl)azetidin-2-one] gave an inhibition at 1 mg/kg of 7%.

Consider `O=Cc1ccc(-c2ccc([C@@H]3[C@@H](CC[C@H](O)c4ccc(F)cc4)C(=O)N3c3ccc(F)cc3)cc2)cc1` [Example 99, 4'-{(2S,3R)-1-(4-fluorophenyl)-3-[(3S)-3-(4-fluorophenyl)-3-hydroxypropyl]-4-oxoazetidin-2-yl}-biphenyl-4-carbaldehyde], for which the inhibition at 1 mg/kg turned out to be 38%.

`CCOc1cccc(-c2ccc([C@@H]3[C@@H](CC[C@H](O)c4ccc(F)cc4)C(=O)N3c3ccc(F)cc3)cc2)c1` [Example 100, (3R,4S)-4-(3'-ethoxybiphenyl-4-yl)-1-(4-fluorophenyl)-3-[(3S)-3-(4-fluorophenyl)-3-hydroxypropyl]azetidin-2-one] gave an inhibition at 1 mg/kg of 54%.

Molecule `CCOc1ccc(-c2ccc([C@@H]3[C@@H](CC[C@H](O)c4ccc(F)cc4)C(=O)N3c3ccc(F)cc3)cc2)cc1` [Example 101, (3R,4S)-4-(4'-ethoxybiphenyl-4-yl)-1-(4-fluorophenyl)-3-[(3S)-3-(4-fluorophenyl)-3-hydroxypropyl]azetidin-2-one] gave an inhibition at 1 mg/kg of 41%.

`COc1cc(-c2ccc([C@@H]3[C@@H](CC[C@H](O)c4ccc(F)cc4)C(=O)N3c3ccc(F)cc3)cc2)ccc1O` [Example 102, (3R,4S)-1-(4-fluorophenyl)-3-[(3S)-3-(4-fluorophenyl)-3-hydroxypropyl]-4-(4'-hydroxy-3'-methoxybiphenyl-4-yl)azetidin-2-one] displayed an inhibition at 1 mg/kg of 56%.

Regarding `CCCOc1cccc(-c2ccc([C@@H]3[C@@H](CC[C@H](O)c4ccc(F)cc4)C(=O)N3c3ccc(F)cc3)cc2)c1` [Example 103, (3R,4S)-1-(4-fluorophenyl)-3-[(3S)-3-(4-fluorophenyl)-3-hydroxypropyl]-4-(3'-propoxybiphenyl-4-yl)azetidin-2-one], the inhibition at 1 mg/kg was 21%.

`O=Cc1ccc(O)cc1-c1ccc([C@@H]2[C@@H](CC[C@H](O)c3ccc(F)cc3)C(=O)N2c2ccc(F)cc2)cc1` [Example 104, 4'-{(2S,3R)-1-(4-fluorophenyl)-3-[(3S)-3-(4-fluorophenyl)-3-hydroxypropyl]-4-oxoazetidin-2-yl}-5-hydroxybiphenyl-2-carbaldehyde] came in with an inhibition at 1 mg/kg of 52%.

In the case of `CC(C)Oc1cccc(-c2ccc([C@@H]3[C@@H](CC[C@H](O)c4ccc(F)cc4)C(=O)N3c3ccc(F)cc3)cc2)c1` [Example 105, (3R,4S)-1-(4-fluorophenyl)-3-[(3S)-3-(4-fluorophenyl)-3-hydroxypropyl]-4-(3'-isopropoxybiphenyl-4-yl)azetidin-2-one], testing at 1 mg/kg gave an inhibition of 15%.

`O=C(O)c1cc(-c2ccc([C@@H]3[C@@H](CC[C@H](O)c4ccc(F)cc4)C(=O)N3c3ccc(F)cc3)cc2)ccc1O` [Example 106, 4'-{(2S,3R)-1-(4-fluorophenyl)-3-[(3S)-3-(4-fluorophenyl)-3-hydroxypropyl]-4-oxoazetidin-2-yl}-4-hydroxybiphenyl-3-carboxylic acid]: at 1 mg/kg the inhibition was 66%.

The molecule `COc1cc(OC)cc(-c2ccc([C@@H]3[C@@H](CC[C@H](O)c4ccc(F)cc4)C(=O)N3c3ccc(F)cc3)cc2)c1` [Example 107, (3R,4S)-4-(3',5'-dimethoxybiphenyl-4-yl)-1-(4-fluorophenyl)-3-[(3S)-3-(4-fluorophenyl)-3-hydroxypropyl]azetidin-2-one] registered an inhibition at 1 mg/kg of 49%.

The molecule `O=C1[C@H](CC[C@H](O)c2ccc(F)cc2)[C@@H](c2ccc(-c3ccc(O)cc3O)cc2)N1c1ccc(F)cc1` [Example 108, (3R,4S)-4-(2',4'-dihydroxybiphenyl-4-yl)-1-(4-fluorophenyl)-3-[(3S)-3-(4-fluorophenyl)-3-hydroxypropyl]azetidin-2-one] yielded an inhibition at 1 mg/kg of 69%.

The molecule `CCCCOc1cccc(-c2ccc([C@@H]3[C@@H](CC[C@H](O)c4ccc(F)cc4)C(=O)N3c3ccc(F)cc3)cc2)c1` [Example 109, (3R,4S)-4-(3'-butoxybiphenyl-4-yl)-1-(4-fluorophenyl)-3-[(3S)-3-(4-fluorophenyl)-3-hydroxypropyl]azetidin-2-one] displayed an inhibition at 1 mg/kg of 52%.
